Here are results for 1 molecule from US6583137B1, “Protease inhibitors” (SmithKline Beecham Corporation, priority 1999, dated 2003).

A short description of the data set: Chiral / configurational stability at the carbon alpha to the ketone. The data set is classed as physicochemical.

Consider `[2H]C1(NC(=O)[C@H](CC(C)C)NC(=O)c2cnc3ccccc3n2)CCCN(S(=O)(=O)c2cccc[n+]2[O-])C([2H])([2H])C1=O` (stereo partly drawn) [present compound, quinoxaline-2-carboxylic acid {(S)-3-methyl-1-[(2,2′,4-trideuterio)-3-oxo-1-(1-oxy-pyridine-2-sulfonyl)-azepan-4-ylcarbamoyl]-butyl}amide], for which the “configurational stability at the carbon center alpha to the ketone” value (compared to the corresponding 5 and 6 membered ring compounds) was “configurationally more stable”. Besides, for the setting “compared to the protonated isomer”, the chiral stability entry is “superior chiral stability”.
